The values that follow come from the NIST ThermoML archive (doi:10.1016/j.fluid.2015.03.049).

For this data set the following is noted: Liquid; for mass density: 101.33 kPa, Vibrating tube method; for Normal boiling temperature: Ebulliometric method (Recirculating still).

Numbers after ± are expanded uncertainties.

For the molecule `COCOC` [dimethoxymethane], the Normal boiling temperature is 42.00 ± 0.2 °C. Moreover, under “303.15 K”, the mass density amounted to 848.59 ± 0.13 kg/m3.

Take `COC(=O)OC` [dimethyl carbonate]: the Normal boiling temperature came to 90.00 ± 0.2 °C. Besides, where the note is “298.15 K”, the mass density amounted to 1063.3 ± 0.12 kg/m3.

Take `COC=O` [methyl methanoate]: the Normal boiling temperature stood at 31.50 ± 0.2 °C. Further, where the note is “288.15 K”, the mass density is 980.82 ± 0.11 kg/m3.
